Results on 3 compounds are retold here after ChEMBL document CHEMBL4359934, “Green chemistry appended synthesis, metabolic stability and pharmacokinetic assessment of medicinally important chromene dihydropyrimidinones” (Bioorg Med Chem Lett, 2019).

In brackets after ≈: the same amount, converted by molar mass.

A short description of series [1]: Ratio of drug level in blood to plasma (unknown origin) at 500 nM incubated for 30 mins by LC-MS/MS analysis. The format is ADME, cell-free. The conditions noted are these: blood and plasma.
Series [2] can be described thus: Ratio of drug level in blood to plasma (unknown origin) at 500 nM measured immediately by LC-MS/MS analysis. The format is ADME, cell-free. To be noted: blood and plasma.
Series [3] is described as follows: Ratio of drug level in blood to plasma (unknown origin) at 500 nM incubated for 45 mins by LC-MS/MS analysis. It is filed as ADME, cell-free. The conditions noted are these: blood and plasma.
Series [4] in a line: Ratio of drug level in blood to plasma (unknown origin) at 500 nM incubated for 60 mins by LC-MS/MS analysis. It is filed as ADME, cell-free. To be noted: blood and plasma.
A short description of series [5]: Ratio of drug level in blood to plasma (unknown origin) at 500 nM incubated for 15 mins by LC-MS/MS analysis. To be noted: blood and plasma. The format is ADME, cell-free.
Series [6] is filed under the species Rattus norvegicus. Description: Inhibition of rat P-gp ATPase in jejuna mucosa membrane assessed as remaining enzyme activity at 20 uM using ATP as substrate preincubated for 5 mins followed by substrate addition and measured after 30 mins. The format is cell membranes.
The species entered for series [7] is Rattus norvegicus. Kind of series: Inhibition of rat P-gp ATPase in jejuna mucosa membrane at 10 to 40 uM using ATP as substrate preincubated for 5 mins followed by substrate addition and measured after 30 mins relative to control. It is filed as cell membranes.
The species entered for series [8] is Rattus norvegicus. Description: Inhibition of rat P-gp ATPase in jejuna mucosa membrane assessed as remaining enzyme activity at 10 to 40 uM using ATP as substrate preincubated for 5 mins followed by substrate addition and measured after 30 mins. It is filed as cell membranes.
Series [9] is described as follows: Intrinsic clearance in human microsomes at 10 uM by LC-MS/MS analysis. The format is ADME, Microsome.
Series [10] can be described thus: Metabolic stability in human liver microsomes assessed as remaining compound at 10 uM measured at 45 mins by LC-MS/MS analysis relative to control. The format is ADME, Microsome. The conditions noted are these: read-out: Stability. Background: Liver microsomes are a subcellular fraction often used to study metabolism.
Series [11] is described as follows: Intrinsic clearance in rat liver at 10 uM by LC-MS/MS analysis. The format is ADME, tissue-based. The conditions noted are these: read-out: CLH.
Series [12] can be described thus: Metabolic stability in human liver microsomes assessed as half life at 10 uM by LC-MS/MS analysis. The format is ADME, Microsome.
Series [13] can be described thus: Stability in rat liver microsomes assessed as hepatic extraction ratio at 10 uM by LC-MS/MS analysis. To be noted: read-out: ERH. It is filed as ADME, Microsome.
Series [14] is described as follows: Metabolic stability in human liver microsomes assessed as remaining compound at 10 uM measured at 30 mins by LC-MS/MS analysis relative to control. The format is ADME, Microsome. To be noted: read-out: Stability.
The next series relates to A549. Kind of series: Cytotoxicity against human A549 cells assessed as reduction in cell viability by MTT assay. The format is functional, cell-based. In general terms: Tetrazolium dyes change colour on reduction, which living cells bring about.
Series [15] is described as follows: n-Octanol-PBS buffer distribution coefficient, log D of compound incubated for 4 hrs by LC-MS/MS analysis. The format is physicochemical.
Series [16] is described as follows: Metabolic stability in rat liver microsomes assessed as remaining compound at 10 uM measured at 45 mins by LC-MS/MS analysis relative to control. The conditions noted are these: read-out: Stability. The format is ADME, Microsome.
Series [17] is described as follows: Solubility of compound in water incubated for 5 hrs by LC-MS/MS analysis. It is filed as physicochemical.
Series [18] in a line: Stability in human liver microsomes assessed as hepatic extraction ratio at 10 uM by LC-MS/MS analysis. It is filed as ADME, Microsome. To be noted: read-out: ERH.
A short description of series [19]: Permeability coefficient of compound incubated for 5 hrs by LC-MS/MS analysis based PAMPA assay. It is filed as ADME. A general note: PAMPA measures passive passage across an artificial lipid membrane.
Series [20] can be described thus: Metabolic stability in rat liver microsomes assessed as remaining compound at 10 uM measured at 30 mins by LC-MS/MS analysis relative to control. It is filed as ADME, Microsome. To be noted: read-out: Stability.
Series [21] can be described thus: Metabolic stability in human liver microsomes assessed as remaining compound at 10 uM measured at 15 mins by LC-MS/MS analysis relative to control. It is filed as ADME, Microsome. The conditions noted are these: 0.25 h.
Series [22] in a line: n-Octanol-water partition coefficient, log P of compound incubated for 4 hrs by LC-MS/MS analysis. The format is physicochemical.
Series [23] can be described thus: Metabolic stability in rat liver microsomes assessed as half life at 10 uM by LC-MS/MS analysis. It is filed as ADME, Microsome.
The nature of series [24]: Intrinsic clearance in human liver at 10 uM by LC-MS/MS analysis. It is filed as ADME, tissue-based. To be noted: read-out: CLH.
Series [25] is described as follows: Protein binding in plasma (unknown origin) incubated for 4 hrs by red equilibrium dialysis based LC-MS/MS analysis. The format is ADME, cell-free. To be noted: read-out: PPB.
Series [26] can be described thus: Metabolic stability in rat liver microsomes assessed as remaining compound at 10 uM measured at 15 mins by LC-MS/MS analysis relative to control. The format is ADME, Microsome. The conditions noted are these: read-out: Stability.
Series [27] in a line: Intrinsic clearance in rat microsome at 10 uM by LC-MS/MS analysis. The format is ADME. The conditions noted are these: microsomes.

Turning to `CC(C)NCC(O)COc1ccc(CC(N)=O)cc1` (stereo not drawn) [ATENOLOL], the blood plasma ratio at 0.5 h, 0.5 µM in series [1] amounted to 1.2. Besides, the blood plasma ratio at 0 min, 0.5 µM in series [2] stood at 1.3. Also, the blood plasma ratio at 0.75 h, 0.5 µM in series [3] was determined as 1.15. Further, the blood plasma ratio at 1 h, 0.5 µM in series [4] was 1. Moreover, the blood plasma ratio at 0.25 h, 0.5 µM in [5] was 1.17.
`O[C@@H](COc1cccc2ncccc12)CN1CCN([C@@H]2c3ccccc3[C@@H]3[C@H](c4ccccc42)C3(F)F)CC1`: the Activity in the series listed under Rattus norvegicus [6] was 2.8 µM/min/µL.
`CCOC(=O)C1=C(C)NC(=O)NC1c1cc2c(cc1OC)OC(C)(CC)C=C2Cl` (stereo not drawn): the inhibition (usually the percentage by which the read-out fell short of the control) in the series listed under Rattus norvegicus [7] lay within 1 to 12%. Besides, the Activity in the series listed under Rattus norvegicus [8] is 6.7 µM/min/µL. The CLint in [9] came to 20.6 µL/min/mg; in series [27], 19 µL/min/mg. In addition, the figures for the remaining at 0.75 h, 10 µM in [10] and in series [16] were 73% and 76%, respectively. Moreover, the CLint scaled at 10 µM in series [11] turned out to be 34 mL/min/kg; in series [24] it was 32.3 mL/min/kg. The t1/2 in series [12] worked out at 1.38 h. The hepatic extraction ratio at 10 µM came to 0.41 in series [13] and 0.6 in series [18]. Moreover, the remaining at 0.5 h, 10 µM is 73% in [14] and 76% in series [20]. In the series with A549, the IC50 – broadly, the concentration needed to halve the response being measured – came to 139 nM. Also, the logD (as a rule, lipophilicity at a set pH, counting ionised and neutral species) at 4 h in [15] came out at 0.08. Besides, the concentration in solution in series [17] (solubility at 5 h) came to 6.8 µg/mL (≈ 16.2 µM). Moreover, in [1], the blood plasma ratio at 0.5 h, 0.5 µM worked out at 1.25. For the same compound, the blood plasma ratio at 0 min, 0.5 µM in [2] came out at 0.9. Moreover, the “log Pe” value in series [19] is listed as “Dose-dependent effect”. Besides, the Stability in series [21] turned out to be 73%. Moreover, the blood plasma ratio at 0.75 h, 0.5 µM in series [3] was found to be 1.35. Besides, the logP (usually the decadic logarithm of the partition coefficient of the neutral form, usually between octanol and water) at 4 h in series [22] was found to be 4.06. The half-life (usually how long it takes for the measured level to halve) at 10 µM in [23] came out at 1.18 h. For the same compound, the fraction unbound at 4 h in series [25] was less than 0.1. Besides, the remaining at 0.25 h, 10 µM in series [26] stood at 76%. In series [4], the blood plasma ratio at 1 h, 0.5 µM came out at 1.4. Moreover, the blood plasma ratio at 0.25 h, 0.5 µM in series [5] stood at 1.11.
